Assay results: patent US20220128564A1, “USE OF A STIMULATING AGENT TO ASSAY IMMUNE CELL POTENCY” (RESEARCH INSTITUTE AT NATIONWIDE CHILDREN'S HOSPITAL, priority 2019, published 2022)

Legend:
[1] = tested on: fresh peripheral blood NK cells; test: PHA-induced cytokine assay, fresh peripheral blood NK cells; type: cell-based; conditions: fresh NK cells (N=10), 10^6 cells, 1 hour stimulation with PHA, supernatant
Description: (§1) Use of tumor cells to test effector function of therapeutic immune cells has been a standard practice. These target cells add biological variabilities to the outcomes of assay. Also, this assay set up is more tedious and complicated adding up variabilities due to target condition, plate set up, person-to-person difference in techniques. The therapeutic response of NK cells via comparison of a PHA cytokine assay against a widely use tumor cell (K562) mediated cytokine assay. The levels of cytokine indicate potency of the response from the NK cells.
(§2) After establishing an optimal number of cells (10^6) for the assay, multiple donors of fresh peripheral blood NK cells (N=10) and expanded NK cells (N=18) were stimulated with PHA to produce cytokines, and after 1 hour cytokine in the supernatant was assessed. Expression of most cytokines are similar between the two types of NK cells, but several cytokines and chemokines related to NK cell function were highly differentially expressed in response to stimulation (FIG. 6). Next the expression of 6 cytokines in fresh and expanded NK cells was measured after 1 hour stimulation with PHA. Pentraxin-3 (mean 1,062 vs 7), IL-8 (mean 821 vs 11), and Chitinase 3-like 1 (mean 620 vs 7) were highly overexpressed in fresh NK cells compared to expanded NK cells, and IFN-γ (mean 15 vs 105), IL-2 (mean 3 vs 141), and CD30 (mean9 vs. 156) were highly overexpressed in expanded NK cells compared to fresh NK cells (FIG. 7). On the basis of overexpression alone, a cut-off of expressing 10 pg/mL of both IFN-γ and IL-2 has 94% specificity […] and 89% sensitivity (16 of 18) in differentiating expanded NK cells from fresh peripheral blood NK cells (FIG. 8).

expanded NK cells = test: PHA-induced cytokine assay, expanded NK cells; type: cell-based; conditions: expanded NK cells (N=18), 10^6 cells, 1 hour stimulation with PHA, supernatant
Description: as §1, §2

## phytohemagglutinin [PHA]
[1]
  CD30 expression (mean): 9
  Chitinase 3-like 1 expression (mean): 620
  IFN-γ expression (mean): 15
  IL-2 expression (mean): 3
  IL-8 expression (mean): 821
  Pentraxin-3 expression (mean): 1,062
Expanded NK cells
  CD30 expression (mean): 156
  Chitinase 3-like 1 expression (mean): 7
  IFN-γ expression (mean): 105
  IL-2 expression (mean): 141
  IL-8 expression (mean): 11
  Pentraxin-3 expression (mean): 7
